Values of other authors, collected in US20250281435A1, “CHEWABLE GUMMY CONTAINING BETA-HYDROXY BETA-METHYLBUTYRIC ACID (HMB)” (Concept Matrix Solutions, priority 2024, published 2025).

Conditions: oral ingestion

CC(C)(O)CC(=O)O [HMB, 3-hydroxy-3-methylbutanoic acid]
time of peak plasma concentration after ingestion: 1 to 2 h
